Measured values: patent US4959362A, “Pharmaceutical compositions containing certain ascorbic acid derivatives useful in the prophylaxis and treatment of disorders of the circulatory system” (Takeda Chemical Industries, Inc., priority 1983, dated 1990)

Columns and labels:
[1] = Oxidation inhibitory activity: reduction of a stable free radical (DPPH); assay type: biochemical; conditions: for DPPH reducing activity compared with the test drug: FIG. 1
Description: Oxidation inhibitory activity determined with the use of a stable radical: In accordance with the method of M. S. Brois [Nature, 181, 1199, 1958], the activity to reduce a stable free radical, α,α-diphenyl-β-picryl hydrazyl (DPPH), was determined, which was used as an index of the oxidation inhibitory activity. […] Then, 20 minutes later, the absorbance at a wavelength of 517 nm was measured with the use of a spectrophotometer.

[2] = system: lipid peroxide formation in rat brain tissue homogenate; assay: Inhibition of lipid peroxide formation in rat brain tissue homogenate (TBA method); assay type: biochemical, rat (male SD); conditions: 10^-5 M; for Inhibitory Effect (%) on lipid peroxide formation: n = 3, mean ± standard error, 37° C., 1 hour
Description: Activity to inhibit lipid peroxide formation in rat brain tissue homogenate:
Male SD rats (12-weeks old) were subjected to exsanguination under anesthesia with pentobarbital, then the brain was excised. The brain tissue was homogenized in a phosphate buffer solution (pH 7.4) to prepare a 5% homogenate. After incubation of the homogenate at 37° C. for 1 hour, the amount of lipid peroxides formed therein was determined by thiobarbituric acid (TBA) method in accordance with the report of Ohkawa et al. on Analytical Biochemistry 95 351, 1979.
The test drug was added to the 5% homogenate before incubation so as to make the final concentration be 10^-5 M. The activity to inhibit the formation of lipid peroxides was compared with that of the reference group to which was added the solvent (DMSO), and shown by % inhibition.

[3] = system: renal disorders due to Fe^3+ -nitrilotriacetate (NTA); assay: Effects on renal disorders in rats due to Fe^3+ nitrilotriacetate (NTA); assay type: in vivo, rat (male SLC-Wistar); conditions: 30 mg/kg orally; for Body Weight / Kidney Weight / Occult Blood Test (positive animals/animals) / Protein in urine / Volume of urine: n = 6, last day of the experiment
Description: Effects to alleviate renal disorders in rats due to Fe^3+ nitrilotriacetate:
Male SLC-Wistar rats (4-weeks old, 64~85 g) were used. The animals were housed individually in metabolism cages and allowed free access to feed and water. Body weight, volume of urine and protein in urine (BIO-RAD method) were determined every day, and occult blood reaction was also examined (Labstick method). On the last day of the experiment, the kidney was excised and weighed.
The animals were orally administered once daily with test drugs or vehicles thereof (suspension in gum arabic), and, 40~60 minutes later, were injected intraperitoneally with nitrilotriacetate (NTA) or Fe^3+ -NTA. Fe^3+ -NTA was used in a form of mixture (1:4, molar ratio), and the dosages were 5 mg/kg in terms of Fe^3+ for 3 days and successively 10 mg/kg for 5 days.
Test drugs were compound (1-12), vitamin C and vitamin E, and the dosages were all 30 mg/kg.

[4] = system: ventricular arrhythmias after coronary artery occlusion-reperfusion in rat hearts; assay: Inhibition of ventricular arrhythmias during coronary artery occlusion-reperfusion in rat hearts; assay type: in vivo, rat (male SD); conditions: for Extrasystole / Mortality (animals) / Mortality (percentage) / Ventricular fibrillation Incidence (animals) / Ventricular fibrillation Incidence (percentage) / Ventricular tachycardia Incidence (animals) / Ventricular tachycardia Incidence (percentage) / Ventricular fibrillation Duration / Ventricular tachycardia Duration / occurrence of ventricular arrhythmias: oral; for Ventricular fibrillation Duration / Ventricular tachycardia Duration: average ±SEM; for occurrence of ventricular arrhythmias: 20 and 50 mg/kg of compound (1-12), 50 mg/kg of vitamin C or E
Description: Action to inhibit ventricular arrhythmias occurred during coronary artery occlusion-reperfusion in rat hearts
Male SD rats (9~13 - weeks old, 250~370 g) were used. The animals were subjected to thoractonomy under artificial respiration while anesthesia was maintained by administering pentobarbital. […] By recording standard limb lead II electrocardiograms, occurrence of ventricular arrhythmias was examined.
The animals were administered, under non-anesthesia, with test drugs as a gum arabic suspension at the dosage of 30 mg/kg at the time of about 90 minutes and of 20 mg/kg at the time of about 45 minutes (total: 50 mg/kg), or at the dosage of 10 mg/kg each (total: 20 mg/kg) at the time of about 90 minutes and about 45 minutes prior to closure of the coronary artery. The results are shown in Table 4 in terms of the total amount of the dosage.
Incidences of ventricular fibrillation and ventricular tachycardia are shown by the percentage of the number of animals presenting the symptoms relative to the number of animals subjected to the test, and the duration of the symptoms was shown in average ±SEM by seconds. Extrasystole is shown by the number of systole/min, and the mortality is shown by the percentage of the number of animals killed relative to the number of animals subjected to the test.

[5] = system: ischemic convulsive seizure (bilateral common carotid artery ligation); assay: Inhibition of ischemic seizure due to ligation of bilateral common carotid arteries in SHR rats; assay type: in vivo, rat (male SHR)
Description: Inhibition of ischemic seizure due to ligation of bilateral common carotid arteries in SHR rats
Male SHR rats (22-weeks old, about 360 g) were used. Under light anesthesia with ether, the animals were subjected to midline incision at the neck and the bilateral common carotid arteries were singled, then ligated to cause cerebral ischemia. […] The animals were orally administered with test drugs as a gum arabic suspension 60 minutes before the ligation of the bilateral common carotid arteries.

[6] = system: mice; assay: Acute toxicity in mice; assay type: in vivo; conditions: 300 and 1000 mg/kg orally
Description: Male Crj-ICR mice (4-weeks old, 21~26 g) were used. The animals, divided into groups, each consisting of six mice, were administered orally with compound (1-12) at the dosage of 300 or 1000 mg/kg. Then, each group was housed in a cage, and observed for 24 hours. The test drugs were suspended in gum arabic, and administered at the volume of 0.1 ml/10 g.

[7] = 100 mg/kg p.o., within 180 minutes

With `O=C1O[C@H]([C@@H](O)CO)C(O)=C1O` [Vitamin C, ascorbic acid] the “DPPH reducing activity compared with the test drug” value [1] was “activity equal to that of the test drug”, the “Activity on lipid peroxide formation” value [2] was “promoted the formation of lipid peroxides remarkably” and the “Inhibitory Effect (%) on lipid peroxide formation” value (“Inhibitory Effect (%)” for short) [2] was -71.6 ± 36.8%. The “Effect on renal disorders” value [3] was “did not show significant effect for alleviating renal disorders”, the “Body Weight” value [3] was 89.2 ± 4.1 g and the “Kidney Weight” value [3] was 64.5 ± 1.7 mg. The “Occult Blood Test (positive animals/animals)” value [3] was 5/6, the Protein in urine [3] was 10.7 ± 2.4 mg/day and the Volume of urine [3] was 10.3 ± 1.7 mL/day. The Extrasystole ([4]; 50 mg/kg total) was 5.1 ± 1.0 systole/min, the “Mortality (animals)” value ([4]; 50 mg/kg total) was 0/6 and the “Mortality (percentage)” value ([4]; 50 mg/kg total) was 0 percentage. For the same compound, the “Ventricular fibrillation Incidence (animals)” value ([4]; 50 mg/kg total) was 6/6, the “Ventricular fibrillation Incidence (percentage)” value ([4]; 50 mg/kg total) was 100 percentage and the “Ventricular tachycardia Incidence (animals)” value ([4]; 50 mg/kg total) was 6/6. The “Ventricular tachycardia Incidence (percentage)” value ([4]; 50 mg/kg total) was 100 percentage, the “Ventricular fibrillation Duration” value ([4]; 50 mg/kg total) was 9.7 ± 2.5 s and the “Ventricular tachycardia Duration” value ([4]; 50 mg/kg total) was 19.0 ± 3.0 s. For the same compound, the “occurrence of ventricular arrhythmias” value [4] was “no significant effects”.
With `CCCCCCCCCCCCCCCCCCCCCCOC1=C(O)[C@@H]([C@@H](O)CO)OC1=O` [Compound (1-14)] the “Inhibitory Effect (%)” value [2] was 38.1 ± 16.6%.
For `CCCCCCCCCCOC1=C(O)[C@@H]([C@@H](O)CO)OC1=O` [Compound (1-4)], the “Inhibitory Effect (%)” value [2] was 40.0 ± 1.1%.
With Vitamin E [reference compound] the “DPPH reducing activity compared with the test drug” value [1] was “activity equal to that of the test drug”, the “Inhibitory Effect (%)” value [2] was 44.9 ± 11.7% and the “Effect on renal disorders” value [3] was “substantially the same effects”. The “occult blood detection” value [3] was “in more than half of the test animals, occult blood test was positive”, the “Body Weight” value [3] was 99.3 ± 2.3 g and the “Kidney Weight” value [3] was 54.3 ± 2.7 mg. For the same compound, the “Occult Blood Test (positive animals/animals)” value [3] was 4/6, the Protein in urine [3] was 6.3 ± 1.4 mg/day and the Volume of urine [3] was 9.0 ± 1.0 mL/day. The Extrasystole ([4]; 50 mg/kg total) was 7.0 ± 4.1 systole/min, the “Mortality (animals)” value ([4]; 50 mg/kg total) was 1/10 and the “Mortality (percentage)” value ([4]; 50 mg/kg total) was 10 percentage. The “Ventricular fibrillation Incidence (animals)” value ([4]; 50 mg/kg total) was 6/10, the “Ventricular fibrillation Incidence (percentage)” value ([4]; 50 mg/kg total) was 60 percentage and the “Ventricular tachycardia Incidence (animals)” value ([4]; 50 mg/kg total) was 7/10. For the same compound, the “Ventricular tachycardia Incidence (percentage)” value ([4]; 50 mg/kg total) was 70 percentage, the “Ventricular fibrillation Duration” value ([4]; 50 mg/kg total) was 43.4 ± 36.0 s and the “Ventricular tachycardia Duration” value ([4]; 50 mg/kg total) was 22.3 ± 9.7 s. The “occurrence of ventricular arrhythmias” value [4] was “no significant effects”.
In the case of `CCCCCCCCCCCCCCCCOC1=C(O)[C@@H]([C@@H](O)CO)OC1=O` [Compound (1-10), 2-O-hexadecyl-L-ascorbic acid], the “Inhibitory Effect (%)” value [2] is reported as 78.5 ± 11.7%.
For `CCCCCCCCCCCCOC1=C(O)[C@@H]([C@@H](O)CO)OC1=O` [Compound (1-6), 2-O-Dodecyl-L-ascorbic acid], the “Inhibitory Effect (%)” value [2] was 55.7 ± 26.5%.
In the case of `CCCCCCCCCCCCCCCCCCCCOC1=C(O)[C@@H]([C@@H](O)CO)OC1=O` [Compound (1-13)], the “Inhibitory Effect (%)” value [2] is reported as 95.4 ± 4.6%.
With `CCCCCCCCOC1=C(O)[C@@H]([C@@H](O)CO)OC1=O` [Compound (1-2)] the “Inhibitory Effect (%)” value [2] was -6.6 ± 3.0%.
With `CCCCCCCCCCCCCCOC1=C(O)[C@@H]([C@@H](O)CO)OC1=O` [Compound (1-8)] the “Inhibitory Effect (%)” value [2] was 93.1 ± 5.3%.
With `CCCCCCCCCCCCCCCCCCOC1=C(O)C(=O)O[C@@H]1[C@@H](O)CO` [reference compound] the “Inhibitory Effect (%)” value [2] was 45.4 ± 8.7%.
In the case of `CCCCCCCCCCCCCCCOC1=C(O)[C@@H]([C@@H](O)CO)OC1=O` [Compound (1-9), 2-O-pentadecyl-L-ascorbic acid], the “Inhibitory Effect (%)” value [2] is reported as 100.0 ± 0%.
For `CCCCCCCCCCCCCCCCCCOC1=C(O)[C@@H]([C@@H](O)CO)OC1=O` [Compound (1-12), 2-O-octadecylascorbic acid], the “concentration at which DPPH is reduced in a manner dependent upon the amount used” value ([1]; 20 minutes, 0.1 mM DPPH ethanol solution, 517 nm) was “not less than 10^-5 M”, the “delay of appearance of the convulsion” value ([5]; 100 mg/kg orally, versus vehicle) was “about 40 minutes” and the “Ischemic convulsive seizure Time” value ([5]; 100 mg/kg p.o., n = 5) was 199 min. For the same compound, the “Ischemic convulsive seizure Incidence (%)” value [5, 7] was 20%, the “Ischemic convulsive seizure Incidence (animals)” value [5, 7] was 1/5 and the “Activity on lipid peroxide formation” value [2] was “higher activity”. The “Inhibitory Effect (%)” value [2] was 88.6 ± 6.8%, the “Effect on renal disorders” value [3] was “renal disorders were alleviated” and the “occult blood detection” value [3] was “only in half of the test animals, occult blood was detected”. The “urine volume and urinary protein compared with vehicle” value [3] was “significatly less”, the “weight of kidney compared with vehicle” value [3] was “significantly less” and the “Body Weight” value [3] was 95.5 ± 3.0 g. For the same compound, the “Kidney Weight” value [3] was 56.5 ± 2.0 mg, the “Occult Blood Test (positive animals/animals)” value [3] was 3/6 and the Protein in urine [3] was 8.1 ± 2.1 mg/day. For the same compound, the Volume of urine [3] was 7.4 ± 1.3 mL/day, the “recovery from sedation and ptosis” value [6] was no more than 3 h and the “state observed” value [6] was “the state of sedation and ptosis were observed”. The “lethality” value ([6]; 24-hour-observation) was “no test animals of either group were killed”, the Extrasystole ([4]; 20 mg/kg total) was 3.3 ± 0.8 systole/min and the “Mortality (animals)” value ([4]; 20 mg/kg total) was 1/17. For the same compound, the “Mortality (percentage)” value ([4]; 20 mg/kg total) was 6 percentage, the “Ventricular fibrillation Incidence (animals)” value ([4]; 20 mg/kg total) was 9/17 and the “Ventricular fibrillation Incidence (percentage)” value ([4]; 20 mg/kg total) was 53 percentage. For the same compound, the “Ventricular tachycardia Incidence (animals)” value ([4]; 20 mg/kg total) was 11/17, the “Ventricular tachycardia Incidence (percentage)” value ([4]; 20 mg/kg total) was 65 percentage and the “Ventricular fibrillation Duration” value ([4]; 20 mg/kg total) was 31.0 ± 28.2 s. The “Ventricular tachycardia Duration” value ([4]; 20 mg/kg total) was 10.2 ± 3.2 s, the Extrasystole ([4]; 50 mg/kg total) was 1.1 ± 0.3 systole/min and the “Mortality (animals)” value ([4]; 50 mg/kg total) was 0/9. For the same compound, the “Mortality (percentage)” value ([4]; 50 mg/kg total) was 0 percentage, the “Ventricular fibrillation Incidence (animals)” value ([4]; 50 mg/kg total) was 2/9 and the “Ventricular fibrillation Incidence (percentage)” value ([4]; 50 mg/kg total) was 22 percentage. For the same compound, the “Ventricular tachycardia Incidence (animals)” value ([4]; 50 mg/kg total) was 2/9, the “Ventricular tachycardia Incidence (percentage)” value ([4]; 50 mg/kg total) was 22 percentage and the “Ventricular fibrillation Duration” value ([4]; 50 mg/kg total) was 1.2 ± 0.8 s. For the same compound, the “Ventricular tachycardia Duration” value ([4]; 50 mg/kg total) was 3.2 ± 2.6 s, the “frequency of occasional PVCs” value ([4]; 20 and 50 mg/kg) was “less significantly” and the “mortality due to VF” value ([4]; 20 and 50 mg/kg) was “low”. The “period of time during which the symptom lasted” value ([4]; 20 and 50 mg/kg) was “shortened” and the “occurrence of ventricular arrhythmias” value [4] was “suppressed significantly and depending on the dosages”.
